Experimental data from patent US12275733B2, “Substituted pyrido[3,4-b]indoles for the treatment of cartilage disorders” (Sanofi, priority 2016, dated 2025).

System: ATDC5 cells
Experiment: Chondrogenesis activity assay in ATDC5 cells (collagen type II induction, immunofluorescence)
Type: cell-based, mouse
Conditions: Mus musculus; for EC50: collagen type II induction in ATDC5 cells, concentration reaching 50% of maximum induction; for Emax: maximum percent induction of collagen type II relative to internal reference compound at 10 μM, ATDC5 cells
Protocol: A) Chondrogenesis Activity Assay in ATDC5 Cells
The chondrogenic potential of the compounds of the invention was determined using clonal mouse chondrogenic ATDC5 cells (T. Atsumi et al., Cell Differ. Dev. 1990, 30, 109-116). ATDC5 cells are derived from mouse embryonic AT805 teratocarcinoma cells and are used frequently to study the multistep chondrogenic differentiation process from precursor cells into chondrocytes (C. Shukunami et al., Exp. Cell Res. 1998, 241, 1-11; H. Aklyami et al., J. Bone Miner. Res. 1996, 11, 22-28; H. Akiyami et al., Biochem. Biophys. Res. Commun. 1997, 235, 142-147; C. Shukunami et al., J. Cell Biol. 1996, 133, 457-468; C. Shukunami et al., J. Bone Miner. Res. 1997, 12, 1174-1188). Undifferentiated ATDC5 cells grow in vitro until confluence, showing a fibroblast-like morphology. In the presence of insulin, cells undergo transient condensation and form numerous nodular structures (cartilage nodules). The cartilagenous nature of these nodules was shown by Alcian Blue staining as evidence of the production of proteoglycan (aggrecan) and collagen type II expression (by expression analysis), both molecular markers of chondrocytes (C. Shukunami et al., J. Cell Biol. 1996, 133, 457-468).
Chondrogenic differentiation of ATDC5 cells into chondrocytes by the compounds of the invention was determined by measuring the induction of type II collagen protein as a marker of chondrocytes, a structural component of the extracellular matrix which constitutes more than 80% of cartilage mass (D. R. Eyre, Clin. Orthop. Relat. Res. 2004, 427 Suppl, S118-S122). ATDC5 cells were obtained from RIKEN and cultured as monolayer in basal culture medium (Dulbecco's Modified Eagle Medium/Nutrient Mixture F-12 (DMEM/F12, Invitrogen, #31331-093) supplemented with 10 μg/ml Transferrin (Roche, #10652 202001), 3×10E−8 M sodium seienite (Sigma, #S-5261) and 5% Fetal Calf Serum (FCS Gold, PAA, #A15-251)), at 37° C., and 5% CO2 in plastic flasks of 75 cm^2 or 300 cm^2 subconfluently for propagation. ATDC5 cells were harvested and resuspended in differentiation culture medium that consisted of basal culture medium complemented with 10 μg/ml insulin (Sigma, #19278), to initiate chondrogenic differentiation. For studying the effect of test compounds, the ATDC5 cells were plated in 96-well plates (3.0×10E4 cells per well in 200 μl of differentiation culture medium). Test compounds dissolved in DMSO were added to yield increasing compound concentrations, typically from 40 nM to 10 μM, and a final DMSO concentration of 0.1%. On each 96-well plate, control wells containing no test compound but the same concentration of DMSO, i.e. untreated cells, were included and used as reference for the determination of the effect of the test compounds on the cells, and wells containing an internal reference compound at a concentration of 10 μM were included and used as positive control and for standardizing the results. Cells in the wells were incubated for 4 days at 37° C., and 5% CO2, followed by quantification of intracellular collagen type II.
Quantification of collagen type II in the ATDC5-cells was done by immunofluorescence staining of collagen type II, and fluorescence intensity was measured using a cellular high content imaging system (ImageXpress, Molecular Device). For immunofluorescence staining of intracellular collagen, medium was removed after compound incubation and cells were fixed with 200 μl/well methanol/water (95%/5%). Cells were permeabilized in 200 μl/well phosphate-buffered saline (PBS) containing 0.2% Triton X100 for 15 min and, after removal of the solution, blocked for 30 min with 200 μl/well PBS/0.2% Triton X100 containing 1% bovine serum albumin (BSA) to avoid unspecific binding. After the blocking step, the solution was removed and collagen type II staining solution was added. […]

| EC50 | SMILES | Emax |
| --- | --- | --- |
| 0.67 µM | CCn1c2c(-c3cnn(CCO)c3)cc(Cl)cc2c2ccnc(C)c21 [Example 44, 2-[4-(6-Chloro-9-ethyl-1-methyl-9H-pyrido[3,4-b]indol-8-yl)-pyrazol-1-yl]-ethanol] | > 80% |
| > 10 µM | Cc1nccc2c3cc(Cl)cc(-c4ccc(C#N)nc4)c3n(CC3CC3)c12 [Example 47, 5-(6-Chloro-9-cyclopropylmethyl-1-methyl-9H-pyrido[3,4-b]indol-8-yl)-pyridine-2-carbonitrile] | 20 to 50% |
| 0.041 µM | Cc1cc(-c2cc(Cl)cc3c4ccnc(C)c4n(CC4CC4)c23)cnc1C#N [Example 48, 5-(6-Chloro-9-cyclopropylmethyl-1-methyl-9H-pyrido[3,4-b]indol-8-yl)-3-methyl-pyridine-2-carbonitrile] | < 20% |
| 0.041 µM | Cc1nccc2c3cc(Cl)cc(-c4cnc5c(c4)OCCN5C)c3n(CC3CC3)c12 [Example 49, 6-Chloro-9-cyclopropymethyl-1-methyl-8-(4-methyl-3,4-dihydro-2H-pyrido[3,2-b][1,4]oxazin-7-yl)-9H-pyrido[3,4-b]indole] | < 20% |
| 0.13 µM | Cc1nccc2c3cc(Cl)cc(-c4ccc(N5CCCC5)nc4)c3n(CC3CC3)c12 [Example 50, 6-Chloro-9-cyclopropylmethyl-1-methyl-8-(6-pyrrolidin-1-ylpyridin-3-yl)-9H-pyrido[3,4-b]indole] | < 20% |
| > 10 µM | Cc1nccc2c3cc(Cl)cc(-c4ccc(N5CCN(C)CC5)nc4)c3n(CC3CC3)c12 [Example 51, 6-Chloro-9-cyclopropylmethyl-1-methyl-8-[6-(4-methyl-piperazin-1-yl)-pyridin-3-yl]-pyrido[3,4-b]indole] | < 20% |
| 1.2 µM | COc1ccc(-c2cc(Cl)cc3c4ccncc4n(CC4(C)COC4)c23)cc1 [Example 52, 6-Chloro-8-(4-methoxy-phenyl)-9-(3-methyl-oxetan-3-ylmethyl)-9H-pyrido[3,4-b]indole] | 50 to 80% |
| 2.1 µM | Nc1ccc(-c2cc(Cl)cc3c4ccncc4n(CC4CC4)c23)c(Cl)n1 [Example 53, 6-Chloro-5-(6-chloro-9-cyclopropylmethyl-9H-pyrido[3,4-b]indol-8-yl)-pyridin-2-ylamine] | 50 to 80% |
| 1.1 µM | CCn1c2cnccc2c2cc(Cl)cc(-c3ccc(Cl)nc3)c21 [Example 54, 6-Chloro-8-(6-chloro-pyridin-3-yl)-9-ethyl-9H-pyrido[3,4-b]indole] | 20 to 50% |
| 0.46 µM | CCn1c2cnccc2c2cc(Cl)cc(-c3cccnc3Cl)c21 [Example 56, 6-Chloro-8-(2-chloro-pyridin-3-yl)-9-ethyl-9H-pyrido[3,4-b]indole] | 20 to 50% |
| 1.6 µM | FC(F)(F)Cn1c2cnccc2c2cc(Cl)cc(-c3cccnc3)c21 [Example 57, 6-Chloro-8-pyridin-3-yl-9-(2,2,2-trifluoro-ethyl)-9H-pyrido[3,4-b]indole] | < 20% |
| 1.5 µM | CCn1c2c(-c3cccnc3Cl)cc(Cl)cc2c2ccnc(C)c21 [Example 58, 6-Chloro-8-(2-chloro-pyridin-3-yl)-9-ethyl-1-methyl-9H-pyrido[3,4-b]indole] | 20 to 50% |
| 1.3 µM | CCn1c2c(-c3ccc(Cl)nc3Cl)cc(Cl)cc2c2ccnc(C)c21 [Example 59, 6-Chloro-8-(2,6-dichloro-pyridin-3-yl)-9-ethyl-1-methyl-9H-pyrido[3,4-b]indole] | > 80% |
| 2.5 µM | N#Cc1ccc(-c2cc(Cl)cc3c4ccncc4n(CC(F)(F)F)c23)cn1 [Example 60, 5-[6-Chloro-9-(2,2,2-trifluoro-ethyl)-9H-pyrido[3,4-b]indol-8-yl]-pyridine-2-carbonitrile] | 20 to 50% |
| 5.6 µM | FC(F)(F)Cn1c2cnccc2c2cc(Cl)cc(-c3cnc4ccccc4c3)c21 [Example 61, 6-Chloro-8-quinolin-3-yl-9-(2,2,2-trifluoro-ethyl)-9H-pyrido[3,4-b]indole] | > 80% |
| 1.2 µM | COc1ccc(-c2cc(Cl)cc3c4ccncc4n(CC(F)(F)F)c23)cn1 [Example 62, 6-Chloro-8-(6-methoxy-pyridin-3-yl)-9-(2,2,2-trifluoro-ethyl)-9H-pyrido[3,4-b]indole] | > 80% |
| 0.59 µM | Fc1ccc(-c2cc(Cl)cc3c4ccncc4n(CC(F)(F)F)c23)c(F)n1 [Example 63, 6-Chloro-8-(2,6-difluoro-pyridin-3-yl)-9-(2,2,2-trifluoro-ethyl)-9H-pyrido[3,4-b]indole] | 20 to 50% |
| 3.9 µM | Cc1nccc2c1[nH]c1c(-c3ccc(Cl)nc3Cl)cc(Cl)cc12 [Example 64, 6-Chloro-8-(2,6-dichloro-pyridin-3-yl)-1-methyl-9H-pyrido[3,4-b]indole] | > 80% |
| 2.3 µM | Cc1nccc2c1[nH]c1c(-c3cccnc3)cc(Cl)cc12 [Example 65, 6-Chloro-1-methyl-8-pyridin-3-yl-9H-pyrido[3,4-b]indole] | 20 to 50% |
| 2.1 µM | FC(F)(F)Cn1c2cnccc2c2cc(Cl)cc(-c3ccc(Cl)nc3)c21 [Example 66, 6-Chloro-8-(6-chloro-pyridin-3-yl)-9-(2,2,2-trifluoro-ethyl)-9H-pyrido[3,4-b]indole] | 50 to 80% |
| 0.74 µM | CCn1c2cnccc2c2cc(Cl)cc(-c3ccc(C)nc3)c21 [Example 67, 6-Chloro-9-ethyl-8-(6-methyl-pyridin-3-yl)-9H-pyrido[3,4-b]indole] | 20 to 50% |
| 7.6 µM | Cc1ccc(-c2cc(Cl)cc3c4ccncc4n(CC(F)(F)F)c23)cn1 [Example 68, 6-Chloro-8-(6-methyl-pyridin-3-yl)-9-(2,2,2-trifluoro-ethyl)-9H-pyrido[3,4-b]indole] | 50 to 80% |
| 2 µM | FC(F)(F)Cn1c2cnccc2c2cc(Cl)cc(-c3cnccc3Cl)c21 [Example 69, 6-Chloro-8-(4-chloro-pyridin-3-yl)-9-(2,2,2-trifluoro-ethyl)-9H-pyrido[3,4-b]indole] | 50 to 80% |
| 0.57 µM | CCn1c2cnccc2c2cc(Cl)cc(-c3ccc(OC)nc3)c21 [Example 70, 6-Chloro-9-ethyl-8-(6-methoxy-pyridin-3-yl)-9H-pyrido[3,4-b]indole] | > 80% |
| 1.5 µM | FC(F)(F)Cn1c2cnccc2c2cc(Cl)cc(-c3cnc4[nH]ccc4c3)c21 [Example 71, 6-Chloro-8-(1H-pyrrolo[2,3-b]pyridin-5-yl)-9-(2,2,2-trifluoro-ethyl)-9H-pyrido[3,4-b]indole] | < 20% |
| 5.8 µM | COc1ccc(-c2cc(Cl)cc3c2[nH]c2cnccc23)cn1 [Example 72, 6-Chloro-8-(6-methoxy-pyridin-3-yl)-9H-pyrido[3,4-b]indole] | 20 to 50% |
| 0.44 µM | Clc1cc(-c2ccc(Cl)nc2)c2[nH]c3cnccc3c2c1 [Example 73, 6-Chloro-8-(6-chloro-pyridin-3-yl)-9H-pyrido[3,4-b]indole] | 20 to 50% |
| 0.92 µM | Clc1cc(-c2ccc(Cl)nc2Cl)c2[nH]c3cnccc3c2c1 [Example 74, 6-Chloro-8-(2,6-dichloro-pyridin-3-yl)-9H-pyrido[3,4-b]indole] | 20 to 50% |
